Test results from paper PMC5913986, “Repurposing and Reformulation of the Antiparasitic Agent Flubendazole for Treatment of Cryptococcal Meningoencephalitis, a Neglected Fungal Disease” (Antimicrobial Agents and Chemotherapy, 2018).
Values after ≈ are worked out from the molar mass of the structure shown. Like-named read-outs stand apart in the source and are kept apart here.

Tests used:
[1] = In vitro DMPK: plasma protein binding; type: in vitro ADME
[2] = design: species or system mice; details: mouse, in vivo
Method: The pharmacokinetics of oral flubendazole was determined with two independently conducted experiments. Treatment was initiated 24 h postinoculation. Doses of 2 to 12 mg/kg were used. Only the first dosing interval was studied. A serial-sacrifice design was used with groups of 3 mice that were sacrificed at 0.5, 1, 2, 8, and 24 h […].
(§1) The pharmacokinetic and pharmacodynamic data sets from mice were modeled using the program Pmetrics ([33]) and the following five inhomogeneous differential equations: (1) XP(1)=B(1)−Ka×X(1) (2) XP(2)=Ka×X(1)−(SCL/V)×X(2)−Kcp×X(2)+Kpc×X(3)−Kcb×X(2)+Kbc×X(4) (3) XP(3)=Kcp×X(2)−Kpc×X(3) (4) XP(4)=[…] (5) XP(5) = Kgmax [1−((X(4)/V)^Hg/C50g^Hg+(X(4)/V)^Hg)] × [1−(X(5)/POPMAX)]×X(5)
(§2) The system parameters and their units are as follows: B(1) (mg) represents the bolus input of flubendazole into the gut. Ka (h^−1) is the first-order rate constant collecting the gut and the central compartment, SCL (liters/h) is the clearance of flubendazole from the central compartment, V (liters) is the volume of the central compartment, and Kcp (h^−1) and Kpc (h^−1) are the first-order intercompartmental rate constants. Kgmax (log10 CFU/g/h) is the maximal rate of cryptococcal growth. POPMAX (CFU/g) is the maximum theoretical fungal density. C50g (mg/liter) is the concentration of flubendazole that induces half-maximal effects on growth. Hg is the slope function for growth. The initial condition (CFU/g; not shown in the equations) is the fungal density immediately following inoculation and is estimated along with other parameters.
(§3) Equations 1, 2, 3, and 4 are pharmacokinetic equations that describe the movement of drug from the gut, throughout the body, and into the brain. Equation 1 describes the movement of drug from the gut. Equation 2 describes the rate of change of flubendazole in the central compartment (plasma) with first-order clearance and movement of drug to and from both a peripheral (unmeasured) compartment and the cerebrum. Equations 3 and 4 describe the rate of change of drug in the peripheral and cerebral compartments, respectively. The pharmacodynamics of flubendazole against Cryptococcus neoformans is described by equation 5, which has terms that describe the capacity-limited growth of Cryptococcus and flubendazole-induced suppression of growth. The antifungal activity in the cerebrum is primarily related to concentrations in the cerebrum.

[3] = rats, 5, 15, 30 mg/kg/day (male), 2.5, 5, 10 mg/kg/day (female), 2 weeks; ref Janssen GLP toxicology studies; cited from earlier work
[4] = tested on: Cryptococcus neoformans; assay: Pharmacodynamics of oral flubendazole nanoformulation in murine model of cryptococcal meningitis; type: in vivo; details: mice
Method: A previously described ([8]) and well-characterized murine model of cryptococcal meningitis was used to investigate the pharmacodynamics of flubendazole. All laboratory animal experiments were performed under UK Home Office project license PPL40/3630 and were approved by the University of Liverpool's Animal Welfare Ethics Review Board. Male CD1 mice were purchased from Charles River and were 20 to 30 g at the time of experimentation. An inoculum of 3 × 10^8 CFU in 0.25 ml was used for each mouse. Groups of mice (n = 3) were serially sacrificed throughout the experimental period. The brains were removed and homogenized. Serial 10-fold dilutions were plated to YPD agar supplemented with chloramphenicol to enumerate the total fungal burden. Plates were incubated in air at 30°C for at least 48 h.
The pharmacodynamics of oral flubendazole was estimated over the course of three separate independently conducted experiments. Groups of 3 mice were sacrificed at 2, 24, 48, 96, 144, and 168 h postinoculation. Dose finding studies were performed using flubendazole at 2, 4, 6, 8, and 12 mg/kg q24h orally. The upper dosage was limited by the volume restrictions for mice imposed by Home Office project license PPL40/3630. A fourth experiment compared 12 mg/kg q24 with 6 mg/kg q12h to examine whether more fractionated regimens provided any additional antifungal effect.
as §1, §2, §3

[5] = molecular target: T1, porcine tubulin (Sus scrofa, UniProt P02554); assay: Porcine tubulin polymerization assay; type: biochemical; details: 37°C, 1 h, read-out: IC50 against porcine tubulin
T1 construct: purified porcine brain tubulin; purchased Cytoskeleton, Inc., Denver, CO BK011P; host or cells: porcine brain (tissue-purified)
Method: Porcine tubulin is generally used as a surrogate for human tubulin because of its high degree of homology (95%) ([27]). […] The commercially available porcine tubulin assay (BK011P; Cytoskeleton, Inc., Denver, CO) quantifies the time-dependent polymerization of tubulin to microtubules and thus the ability of tubulin inhibitors to disrupt this process.
The porcine tubulin assay was performed according to the manufacturer's instructions. Briefly, the 96-well assay plate was prewarmed to 37°C prior to use. Five microliters of test compound(s) and controls at 0, 1.25, 2.5, 5, and 10 μM were aliquoted into each well and prewarmed for 1 min. […] Polymerization was initiated by mixing 45 μl of reaction buffer that contained 2 mg/ml of purified porcine brain tubulin, 10 μM fluorescent reporter, PEM buffer (80 mM PIPES, 0.5 mM EGTA, 2 mM MgCl2 [pH 6.9]), 1 mM GTP, and 20.3% glycerol. Tubulin polymerization was followed by an increase in fluorescence intensity due to the incorporation of a fluorescence reporter into microtubules as polymerization occurred. The change in fluorescence was measured using an excitation and emission wavelength of 360 nm and 450 nm, respectively, every 1 min for 1 h at 37°C using a Varioskan multimode plate reader (Thermo scientific Inc.). All data points were acquired in triplicate, and IC50s were calculated with GraphPad Prism. […]

[6] = tested on: C. neoformans isolates; assay: MIC determination, CLSI methodology; type: cell-based, Cryptococcus neoformans; details: 50 strains
Method: (§4) The initial in vitro susceptibility testing was performed with H99 (ATCC 208821). An additional 49 clinical isolates were obtained from the National Centre for Microbiology Instituto de Salud Carlos III, Madrid, Spain (courtesy of Ana Alastruey-Izquierdo and Manual Cuenca-Estrella). These isolates were identified to the species level using standard microbiological techniques.
(§5) The MIC of flubendazole against H99 (ATCC 208821) and the 49 isolates was estimated using methodology of the European Committee on Antimicrobial Susceptibility Testing (EUCAST [25]) and the Clinical and Laboratory Standards Institute (CLSI [26]). The endpoint for MIC determination using was 50% for both the EUCAST and CLSI methods. MICs were performed in triplicate.

[7] = tested on: filarial diseases such as onchocerciasis and lymphatic filariasis; design: method as in PMID 21609260; details: given subcutaneously; cited from earlier work
[8] = tested on: Cryptococcus neoformans; type: in vivo, mice
[9] = tested on: C. neoformans var. grubii (ATCC 208821; H99); assay: Hollow-fiber infection model of cryptococcal meningoencephalitis; type: cell-based, Cryptococcus neoformans; details: q24h for 8 days, intended peaks 1.25, 2.5, 10 mg/liter
Method: A new hollow-fiber infection model was developed to investigate the in vitro pharmacodynamics of flubendazole against C. neoformans. The same cartridges (FiberCell Systems, Frederick, MD) and configuration as previously described for bacterial pathogens was used (see, for example, reference). The extracapillary space of each cartridge was inoculated with 40 ml of a suspension containing 6 log10 CFU/ml of C. neoformans var. grubii (ATCC 208821; H99). Yeast extract-peptone-dextrose (YPD) medium was pumped from the central compartment through the cartridge and back again using a peristaltic pump (205 U; Watson-Marlow, United Kingdom). The hollow-fiber infection model was incubated at 37°C in ambient air. The time course of fungal growth was determined by removing 1 ml from the extracapillary space of the cartridge and plating serial 10-fold dilutions to YPD agar.
The relationship between flubendazole exposure and its effect was explored using a range of drug exposures. […] Various doses of flubendazole were administered q24h by infusion over 1 h for 8 days to the central compartment using a programmable syringe driver (Aladdin pump; World Precision Instruments, United Kingdom). There was a 24-h delay in the initiation of flubendazole therapy postinoculation. […]

[10] = In vitro DMPK: aqueous solubility; type: physicochemical
[11] = tested on: Cryptococcus neoformans; assay: Pharmacodynamics in rabbit model of cryptococcal meningitis; type: in vivo; details: rabbits; for antifungal effect: CSF
Method: A previously described and well-characterized rabbit model of cryptococcal meningoencephalitis ([32]) was used to further investigate the pharmacodynamics of flubendazole. Male New Zealand White rabbits were purchased from Harlan. Rabbits weighed 2.5 to 3 kg at the time of experimentation. Rabbits were immunosuppressed intramuscularly with hydrocortisone at 10 mg/kg on day −1 relative to infection and then daily throughout the experiment.
Cryptococcal meningoencephalitis was induced with the intracisternal inoculation of 0.25 ml of a suspension containing 3.8 × 10^8 CFU/ml under general anesthesia (induced with medetomidine and ketamine). This inoculum results in progressive infection that manifests as an increase in fungal burden in the CSF and reproducible encephalitis. There was minimal clinical disease with no demonstrable neurological signs in the experimental period. Mortality always occurred in the context of cisternal tapping and repeated anesthesia rather than from progressive infection.
We directly linked plasma concentrations with the antifungal effect.

[12] = In vitro DMPK: rat hepatic intrinsic clearance; type: in vitro ADME; details: hepatocytes
[13] = tested on: C. neoformans isolates; assay: MIC determination, EUCAST methodology; type: cell-based, Cryptococcus neoformans; details: for MIC: Cryptococcus neoformans
Method: as §4, §5

[14] = design: method as in PMID 26443851; details: cited from earlier work
[15] = Pharmacokinetics of oral flubendazole in rabbits
Method: PK-PD relationships in the rabbit were estimated in two independently conducted experiments including 6 rabbits in each. Rabbits were placed under general anesthesia for removal of CSF via intracisternal tapping at 48 h intervals. […] Treatment was initiated 48 h postinoculation and continued for 10 days, after which time all rabbits were sacrificed. Thus, the total duration of the experiment was 288 h.
Flubendazole concentrations in all matrices were measured using validated ultrahigh-performance liquid chromatography-tandem mass spectrometry (LC-MS/MS) implemented on an Agilent 6420 triple quad mass spectrometer and an Agilent 1290 infinity LC system (Agilent Technologies UK Ltd., Cheshire, UK). Flubendazole was extracted by protein precipitation by adding 300 μl of a 50:50 mix of acetonitrile and methanol that contained the internal standard [6,7-dimethyl-2,3-di(2-pyridyl) quinoxaline; Sigma-Aldrich, Dorset, UK] at a final concentration of 1 mg/liter to 30 μl of each matrix.

[16] = In vitro DMPK: logD7.4; type: physicochemical; details: pH 7.4; commercially available powder
[17] = In vitro DMPK: human microsomal intrinsic clearance; type: in vitro ADME; details: human microsomes
[18] = dogs, 20, 40, 100 mg/kg/day, 2 weeks; ref Janssen GLP toxicology studies; cited from earlier work
[19] = molecular target: T1, porcine tubulin; design: method as in doi:10.2533/chimia.2007.368; details: known tubulin inhibitors; cited from earlier work

T1 sequence (P02554 whole entry): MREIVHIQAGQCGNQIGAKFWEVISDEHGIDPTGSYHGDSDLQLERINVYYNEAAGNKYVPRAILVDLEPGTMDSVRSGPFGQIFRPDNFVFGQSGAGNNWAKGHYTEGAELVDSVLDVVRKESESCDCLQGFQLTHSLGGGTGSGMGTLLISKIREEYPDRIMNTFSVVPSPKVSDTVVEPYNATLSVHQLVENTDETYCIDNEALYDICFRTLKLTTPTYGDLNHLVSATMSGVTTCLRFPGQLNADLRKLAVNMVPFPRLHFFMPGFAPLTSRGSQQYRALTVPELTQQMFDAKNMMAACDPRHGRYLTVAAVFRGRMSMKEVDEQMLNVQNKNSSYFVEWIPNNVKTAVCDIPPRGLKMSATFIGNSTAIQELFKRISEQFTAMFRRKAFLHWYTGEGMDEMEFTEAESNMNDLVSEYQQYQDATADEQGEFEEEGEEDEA
T1 sequence (P02550 whole entry partner): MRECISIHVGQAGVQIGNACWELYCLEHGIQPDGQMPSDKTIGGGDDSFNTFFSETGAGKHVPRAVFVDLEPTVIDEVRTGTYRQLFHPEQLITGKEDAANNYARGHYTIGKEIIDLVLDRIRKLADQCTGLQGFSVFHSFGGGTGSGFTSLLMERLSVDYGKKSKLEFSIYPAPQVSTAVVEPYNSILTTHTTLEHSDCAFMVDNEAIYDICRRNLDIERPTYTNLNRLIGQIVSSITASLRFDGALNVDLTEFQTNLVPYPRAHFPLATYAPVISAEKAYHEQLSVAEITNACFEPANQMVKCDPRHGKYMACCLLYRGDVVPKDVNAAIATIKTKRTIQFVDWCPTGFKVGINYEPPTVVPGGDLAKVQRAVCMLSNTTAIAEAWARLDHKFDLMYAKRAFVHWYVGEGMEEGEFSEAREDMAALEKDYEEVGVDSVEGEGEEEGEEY

For COC(=O)Nc1nc2cc(C(=O)c3ccc(F)cc3)ccc2[nH]1 [flubendazole], the fraction unbound [1] was 0.094, the “absorption after oral dosing” value [2] was “rapidly absorbed” and the “Ka, mean” value ([2]; po) was 11.312 h⁻¹. The “Ka, median” value ([2]; po) was 14.895 h⁻¹, the “Kbc, mean” value ([2]; po) was 0.056 h⁻¹ and the “Kbc, median” value ([2]; po) was 0.056 h⁻¹. For the same compound, the “Kcb, mean” value ([2]; po) was 3.446 h⁻¹, the “Kcb, median” value ([2]; po) was 0.594 h⁻¹ and the “Kcp, mean” value ([2]; po) was 15.741 h⁻¹. For the same compound, the “Kcp, median” value ([2]; po) was 15.404 h⁻¹, the “Kpc, mean” value ([2]; po) was 16.997 h⁻¹ and the “Kpc, median” value ([2]; po) was 16.915 h⁻¹. The “SCL/F (apparent clearance), mean” value ([2]; po) was 0.039 L/h, the “SCL/F (apparent clearance), median” value ([2]; po) was 0.026 L/h and the “Vb/F (apparent volume of brain), mean” value ([2]; po) was 0.277 L. For the same compound, the “Vb/F (apparent volume of brain), median” value ([2]; po) was 0.146 L, the “Vc/F (apparent volume of central compartment), mean” value ([2]; po) was 0.051 L and the “Vc/F (apparent volume of central compartment), median” value ([2]; po) was 0.069 L. For the same compound, the “cerebrum concentrations relative to plasma” value ([2]; po) was “consistently higher than those observed in plasma”, the “ratio of AUC for serum and AUC for cerebrum” value ([2]; po) was 1:4.44 and the toxicity findings [3] was “evidence of toxicity related to the pharmacological activity of flubendazole in the gastrointestinal tract, lymphoid system, and bone marrow, as well as testicular toxicity”. For the same compound, the “reduction in fungal burden compared with vehicle-treated controls” value ([4]; 12 mg/kg of body weight/day orally (abstract)) was ~2 log10CFU/g, the “effect on fungal growth in the brain” value ([4]; 12 mg/kg/day orally) was “slowed but did not prevent fungal growth in the brain” and the C50g (concentration inducing half-maximal effects on growth), mean ([4]; PK-PD model) was 2.04 mg/L. The C50g (concentration inducing half-maximal effects on growth), median ([4]; PK-PD model) was 1.68 mg/L, the “Hg (slope function for effect on growth), mean” value ([4]; PK-PD model) was 10.338 and the “Hg (slope function for effect on growth), median” value ([4]; PK-PD model) was 5.096. The “antifungal effect of 6 mg/kg q12h compared with 12 mg/kg/day” value ([4]; oral, single experiment, data not shown) was “no difference in antifungal effect”, the IC50 [5] was 2.38 µM and the “No. of isolates with MIC (mg/liter) of: 0.03” value [6] was 2. The “No. of isolates with MIC (mg/liter) of: 0.06” value [6] was 40, the “No. of isolates with MIC (mg/liter) of: 0.125” value [6] was 8 and the “No. of isolates with MIC (mg/liter) of: 0.25” value [6] was 0. For the same compound, the “No. of isolates with MIC (mg/liter) of: 0.5” value [6] was 0, the “activity in filarial disease models” value [7] was “striking activity” and the “antifungal effect, orally administered pure compound” value ([8]; mice, oral, water, polysorbate 80/PBS, DMSO, PEG400 or cyclodextrin vehicles, data not shown) was “no demonstrable antifungal effect”. For the same compound, the “flubendazole concentrations in plasma and cerebrum” value ([8]; mouse, in vivo) was “quantifiable in plasma and the cerebrum”, the “antifungal activity in hollow-fiber model” value [9] was “Rapid fungicidal activity” and the solubility [10] was 0.8 µM (≈ 0.251 µg/mL). For the same compound, the antifungal effect ([11]; 6 mg/kg/day orally) was “no demonstrable antifungal effect”, the antifungal effect ([11]; 22.5 mg/kg q24h orally, few animals) was “the effect was small” and the “fungal burden in the cerebrum at the end of the experiment vs other groups” value ([11]; 6 and 22.5 mg/kg q24h, 288 h postinoculation, P = 0.464) was “no difference in the fungal burden”. For the same compound, the hepatocyte CLint [12] was 39 µL/min/1e6 cells, the MIC ([13]; EUCAST methodology, read-out: modal MIC) was 0.125 µg/mL (≈ 0.399 µM) and the MIC ([13]; range over isolates, Table 1, comparable with EUCAST and CLSI, read-out: MICs) was 0.06 to 0.25 µg/mL (≈ 0.192 to 0.798 µM). For the same compound, the “No. of isolates with MIC (mg/liter) of: 0.03” value ([13]; EUCAST, 50 strains) was 1, the “No. of isolates with MIC (mg/liter) of: 0.06” value ([13]; EUCAST, 50 strains) was 19 and the “No. of isolates with MIC (mg/liter) of: 0.125” value ([13]; EUCAST, 50 strains) was 25. For the same compound, the “No. of isolates with MIC (mg/liter) of: 0.25” value ([13]; EUCAST, 50 strains) was 5, the “No. of isolates with MIC (mg/liter) of: 0.5” value ([13]; EUCAST, 50 strains) was 0 and the aneugenicity [14] was “aneugenic”. The clastogenicity [14] was “clastogenic”, the embryotoxicity [14] was “embryotoxic” and the oral bioavailability [15] was “orally bioavailable”. For the same compound, the “drug concentrations in CSF or cerebrum” value ([15]; oral 6 or 22.5 mg/kg q24h, at time of sacrifice, limit of quantitation 0.0005 mg/liter) was “no quantifiable drug concentrations”, the logD [16] was 2.9 and the microsomal CLint [17] was 44 µL/min/mg. The liver toxicity [18] was “liver toxicity was also observed” and the toxicity findings [18] was “evidence of toxicity related to the pharmacological activity of flubendazole in the gastrointestinal tract, lymphoid system, and bone marrow, as well as testicular toxicity”.
In the case of CC(=O)O[C@H]1C(=O)[C@@]2(C)[C@H]([C@H](OC(=O)c3ccccc3)[C@]3(O)C[C@H](OC(=O)[C@H](O)[C@@H](NC(=O)c4ccccc4)c4ccccc4)C(C)=C1C3(C)C)[C@]1(OC(C)=O)CO[C@@H]1C[C@@H]2O [paclitaxel], the IC50 [19] is given as 3.9 µM.
In the case of CC[C@]1(O)C[C@@H]2CN(CCc3c([nH]c4ccccc34)[C@@](C(=O)OC)(c3cc4c(cc3OC)N(C)[C@H]3[C@@](O)(C(=O)OC)[C@H](OC(C)=O)[C@]5(CC)C=CCN6CC[C@]43[C@@H]65)C2)C1 [vinblastine], the IC50 [19] is listed as 5.3 µM.
